Data: US20260297109A1, “COMPOUNDS AS SUMO ACTIVATING ENZYME INHIBITORS” (WIGEN BIOMEDICINE TECHNOLOGY (SHANGHAI) CO., LTD., priority 2022, published 2026)

These compounds were tested against T1, SAE (Homo sapiens, UniProt Q9UBT2) (assay: SUMO IF: in vitro inhibitory activity assay against SAE in HCT116 cells (SUMO-2/3 immunofluorescence)). Conditions: class symbols, 6 h at 37° C.
T1 construct: endogenous in cells; host or cells: HCT116
T1 sequence (Q9UBT2 1-640): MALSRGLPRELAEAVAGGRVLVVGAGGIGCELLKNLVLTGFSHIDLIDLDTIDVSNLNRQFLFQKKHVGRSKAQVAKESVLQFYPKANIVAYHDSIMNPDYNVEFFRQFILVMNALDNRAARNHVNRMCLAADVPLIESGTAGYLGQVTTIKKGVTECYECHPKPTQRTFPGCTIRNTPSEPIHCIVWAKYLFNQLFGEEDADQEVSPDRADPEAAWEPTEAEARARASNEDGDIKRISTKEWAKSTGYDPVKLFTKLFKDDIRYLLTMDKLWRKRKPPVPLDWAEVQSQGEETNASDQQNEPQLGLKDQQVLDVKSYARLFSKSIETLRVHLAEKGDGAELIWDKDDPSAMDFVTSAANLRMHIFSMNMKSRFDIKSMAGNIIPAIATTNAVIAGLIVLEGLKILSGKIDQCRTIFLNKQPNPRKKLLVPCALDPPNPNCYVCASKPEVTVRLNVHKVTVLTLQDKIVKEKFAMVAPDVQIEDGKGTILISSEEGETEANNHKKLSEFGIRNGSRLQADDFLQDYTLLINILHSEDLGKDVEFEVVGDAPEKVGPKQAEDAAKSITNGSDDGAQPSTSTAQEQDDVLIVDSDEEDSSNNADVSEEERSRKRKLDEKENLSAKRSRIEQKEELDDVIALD
T1 sequence (Q9UBE0 1-346): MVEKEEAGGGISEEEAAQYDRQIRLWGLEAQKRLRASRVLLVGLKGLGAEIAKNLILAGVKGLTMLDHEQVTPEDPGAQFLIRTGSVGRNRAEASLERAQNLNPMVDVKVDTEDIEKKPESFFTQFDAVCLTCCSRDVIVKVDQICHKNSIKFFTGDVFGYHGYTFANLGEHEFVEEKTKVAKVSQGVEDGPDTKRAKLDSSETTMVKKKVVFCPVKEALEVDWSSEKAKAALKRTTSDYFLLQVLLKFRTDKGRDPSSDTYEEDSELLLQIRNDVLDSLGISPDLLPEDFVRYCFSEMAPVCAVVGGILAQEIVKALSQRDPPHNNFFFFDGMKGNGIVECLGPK
Format: cell-based
Summary of the method: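 HCT116 cells were treated with compound for 6 h at 37 °C, then PFA-fixed, Triton-permeabilised and BSA-blocked. They were stained overnight at 4 °C with anti-SUMO-2/3 (18H8) rabbit mAb (1:400), then with FITC anti-rabbit IgG (1:300). Fluorescence versus DMSO gave inhibition rate and IC50.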

Compared with `NS(=O)(=O)OC[C@H]1[C@H](F)[C@@H](Nc2ncncc2C(=O)c2cc3c(s2)OCC32NCCc3ccc(Cl)cc32)C[C@@H]1O` (stereo partly shown) [Compound 145], `NS(=O)(=O)OC[C@H]1[C@H](F)[C@@H](Nc2ncncc2C(=O)c2cc3c(s2)OC[C@@]32NCCc3ccc(F)cc32)C[C@@H]1O` [Compound 143] is higher in IC50: 50 to 200 nM for the first, over 200 nM for the second.

`C#Cc1sc(C(=O)c2cncnc2N[C@H]2C[C@H](O)[C@@H](COS(N)(=O)=O)[C@@H]2F)cc1C1NCCc2ccc(Cl)cc21` (stereo partly shown) [Compound 259] and `CCc1sc(C(=O)c2cncnc2N[C@H]2C[C@H](O)[C@@H](COS(N)(=O)=O)[C@@H]2F)cc1C1NCCc2ccc(Cl)cc21` (stereo partly shown) [Compound 260] fall in the same range of IC50: 50 to 200 nM for the first, 50 to 200 nM for the second.

`NS(=O)(=O)OC[C@H]1[C@H](F)[C@@H](Nc2ncncc2C(=O)c2cc3c(s2)CCCC32NCCc3cc(F)c(Cl)cc32)C[C@@H]1O` (stereo partly shown) [Compound 111] and `Cc1cc2c(cc1Cl)C1(CCCc3sc(C(=O)c4cncnc4N[C@H]4C[C@H](O)[C@@H](COS(N)(=O)=O)[C@@H]4F)cc31)NCC2` (stereo partly shown) [Compound 113] cannot be ordered by IC50: at most 50 nM for the first, 50 to 200 nM for the second.

`CC1(C)CN[C@]2(CCCc3sc(C(=O)c4cncnc4N[C@H]4C[C@H](O)[C@@H](COS(N)(=O)=O)[C@@H]4F)cc32)c2cc(Cl)ccc21` [Compound 1028] and `NS(=O)(=O)OC[C@H]1[C@H](F)[C@@H](Nc2ncncc2C(=O)c2cc3c(s2)CCC32NCCc3ccc(Cl)cc32)C[C@@H]1O` (stereo partly shown) [Compound 130] fall in the same range of IC50: 50 to 200 nM for the first, 50 to 200 nM for the second.

First: Cc1sc(C(=O)c2cncnc2N[C@H]2C[C@H](O)[C@@H](COS(N)(=O)=O)[C@@H]2F)cc1C1NCCc2ccccc21 (stereo partly shown) [Compound 229]
Second: Cc1sc(C(=O)c2cncnc2N[C@H]2C[C@H](O)[C@@H](COS(N)(=O)=O)[C@@H]2F)cc1C1NCCc2ccncc21 (stereo partly shown) [Compound 253]
The IC50 of the first is higher: over 200 nM for the first, 50 to 200 nM for the second. The second is the more potent here.

Compared with `NS(=O)(=O)OC[C@H]1[C@H](F)[C@@H](Nc2ncncc2C(=O)c2cc3c(s2)COCC32NCCc3c(Cl)cc(Cl)cc32)C[C@@H]1O` (stereo partly shown) [Compound 564], `NS(=O)(=O)OC[C@H]1[C@H](F)[C@@H](Nc2ncncc2C(=O)c2cc3c(s2)COC[C@@]32NCCc3c(Cl)cc(Cl)cc32)C[C@@H]1O` [Compound 565] is higher in IC50: 50 to 200 nM for the first, over 200 nM for the second.

Compared with `NS(=O)(=O)OC[C@H]1[C@H](F)[C@@H](Nc2ncncc2C(=O)c2cc3c(s2)CCC[C@]32NCCc3ncc(Cl)cc32)C[C@@H]1O` [Compound 605], `NS(=O)(=O)OC[C@H]1[C@H](F)[C@@H](Nc2ncncc2C(=O)c2cc3c(s2)CSC[C@@]32NCCc3ncc(Cl)cc32)C[C@@H]1O` [Compound 613] is higher in IC50: at most 50 nM for the first, over 200 nM for the second. The first is the more potent here.

`NS(=O)(=O)OC[C@H]1[C@H](F)[C@@H](Nc2ncncc2C(=O)c2cc3c(s2)CC[C@]32NCCc3cc(Cl)c(Cl)cc32)C[C@@H]1O` [Compound 693] and `NS(=O)(=O)OC[C@H]1[C@H](F)[C@@H](Nc2ncncc2C(=O)c2cc3c(s2)CCC32NCCc3cc(Cl)c(Cl)cc32)C[C@@H]1O` (stereo partly shown) [Compound 154] cannot be ordered by IC50: at most 50 nM for the first, 50 to 200 nM for the second.

Compared with `COc1ccc2c(c1)C(c1cc(C(=O)c3cncnc3N[C@H]3C[C@H](O)[C@@H](COS(N)(=O)=O)[C@@H]3F)sc1C)NCC2` (stereo partly shown) [Compound 243], `Cc1cc2c(cc1Cl)C(c1cc(C(=O)c3cncnc3N[C@H]3C[C@H](O)[C@@H](COS(N)(=O)=O)[C@@H]3F)sc1C)NCC2` (stereo partly shown) [Compound 248] is lower in IC50: over 200 nM for the first, 50 to 200 nM for the second. The second is the more potent here.

First: NS(=O)(=O)OC[C@H]1[C@H](F)[C@@H](Nc2ncncc2C(=O)c2nc3c(s2)COC[C@@]32NCCc3ccc(Cl)cc32)C[C@@H]1O [Compound 589]
Second: NS(=O)(=O)OC[C@H]1[C@H](F)[C@@H](Nc2ncncc2C(=O)c2cc3c(s2)C=CCC32NCCc3ccc(Cl)cc32)C[C@@H]1O (stereo partly shown) [Compound 120]
The IC50 of the first is higher: over 200 nM for the first, at most 50 nM for the second.

`N#Cc1cc2c(cc1Cl)C1(CCCc3sc(C(=O)c4cncnc4N[C@H]4C[C@H](O)[C@@H](COS(N)(=O)=O)[C@@H]4F)cc31)NCC2` (stereo partly shown) [Compound 114] and `NS(=O)(=O)OC[C@H]1[C@H](F)[C@@H](Nc2ncncc2C(=O)c2cc3c(s2)CCC32NCCc3cc(F)c(F)cc32)C[C@@H]1O` (stereo partly shown) [Compound 152] fall in the same range of IC50: 50 to 200 nM for the first, 50 to 200 nM for the second.

`CCN1Cc2sc(C(=O)c3cncnc3N[C@H]3C[C@H](O)[C@@H](COS(N)(=O)=O)[C@@H]3F)cc2[C@@]2(C1)OCCc1ccc(F)cc12` [Compound 727] and `CN1Cc2sc(C(=O)c3cncnc3N[C@H]3C[C@H](O)[C@@H](COS(N)(=O)=O)[C@@H]3F)cc2[C@@]2(C1)OCCc1ccc(F)cc12` [Compound 721] cannot be ordered by IC50: over 200 nM for the first, over 200 nM for the second.

`NS(=O)(=O)OC[C@H]1[C@H](F)[C@@H](Nc2ncncc2C(=O)c2cc3c(s2)CCC[C@]32OCCc3ccc(Cl)cc32)C[C@@H]1O` [Compound 686] and `NS(=O)(=O)OC[C@H]1[C@H](F)[C@@H](Nc2ncncc2C(=O)c2cc3c(s2)CCC[C@]32OCCc3ccccc32)C[C@@H]1O` [Compound 710] cannot be ordered by IC50: at most 50 nM for the first, 50 to 200 nM for the second.

`NS(=O)(=O)OC[C@H]1[C@H](F)[C@@H](Nc2ncncc2C(=O)c2cc3c(s2)C(F)=C[C@]32NCCc3ccc(Cl)cc32)C[C@@H]1O` [Compound 323] and `NS(=O)(=O)OC[C@H]1[C@H](F)[C@@H](Nc2ncncc2C(=O)c2cc3c(s2)CN(CC(F)(F)F)CC32NCCc3ccc(Cl)cc32)C[C@@H]1O` (stereo partly shown) [Compound 651] cannot be ordered by IC50: at most 50 nM for the first, at most 50 nM for the second.

`CC1CN[C@]2(C=Cc3sc(C(=O)c4cncnc4N[C@H]4C[C@H](O)[C@@H](COS(N)(=O)=O)[C@@H]4F)cc32)c2cc(Cl)ccc21` (stereo partly shown) [Compound 1055] and `CC1(C)CNC2(C=Cc3sc(C(=O)c4cncnc4N[C@H]4C[C@H](O)[C@@H](COS(N)(=O)=O)[C@@H]4F)cc32)c2cc(Cl)ccc21` (stereo partly shown) [Compound 1059] cannot be ordered by IC50: at most 50 nM for the first, 50 to 200 nM for the second.

Compared with `NS(=O)(=O)CC[C@H]1[C@H](F)[C@@H](Nc2ncncc2C(=O)c2cc3c(s2)CCC[C@@]32NCCc3ccc(Cl)cc32)C[C@@H]1O` [Compound 637], `NS(=O)(=O)OC[C@H]1[C@H](F)[C@@H](Nc2ncncc2C(=O)c2cc3c(s2)CCC[C@]32NCCc3ccc(C4CC4)cc32)C[C@@H]1O` [Compound 667] is lower in IC50: over 200 nM for the first, 50 to 200 nM for the second. The second is the more potent here.

First: NS(=O)(=O)OC[C@H]1[C@H](F)[C@@H](Nc2ncncc2C(=O)c2cc3c(s2)CCCC32NCCc3ccccc32)C[C@@H]1O (stereo partly shown) [Compound 85]
Second: NS(=O)(=O)OC[C@H]1[C@H](F)[C@@H](Nc2ncncc2C(=O)c2cc3c(s2)CCC[C@@]32NCCc3ccccc32)C[C@@H]1O [Compound 86]
The IC50 of the first is lower: 50 to 200 nM for the first, over 200 nM for the second.

`NS(=O)(=O)OC[C@H]1[C@H](F)[C@@H](Nc2ncncc2C(=O)c2cc3c(s2)CC[C@]32OCCc3ccc(F)cc32)C[C@@H]1O` [Compound 749] and `NS(=O)(=O)OC[C@H]1[C@H](F)[C@@H](Nc2ncncc2C(=O)c2cc3c(s2)CC[C@]32OCCc3ccccc32)C[C@@H]1O` [Compound 746] fall in the same range of IC50: 50 to 200 nM for the first, 50 to 200 nM for the second.

`NS(=O)(=O)OC[C@H]1[C@H](F)[C@@H](Nc2ncncc2C(=O)c2cc3c(s2)CSC[C@]32NCCc3ccccc32)C[C@@H]1O` [Compound 296] and `NS(=O)(=O)OC[C@H]1[C@H](F)[C@@H](Nc2ncncc2C(=O)c2cc3c(s2)CCC[C@]32NCCc3cc(F)c(Cl)c(F)c32)C[C@@H]1O` [Compound 676] cannot be ordered by IC50: 50 to 200 nM for the first, at most 50 nM for the second.

Compared with `NS(=O)(=O)OC[C@H]1[C@H](F)[C@@H](Nc2ncncc2C(=O)c2cc(C3NCCc4ccc(Cl)cc43)c(C3CC3)s2)C[C@@H]1O` (stereo partly shown) [Compound 984], `Cc1sc(C(=O)c2cncnc2N[C@H]2C[C@H](O)[C@@H](COS(N)(=O)=O)[C@@H]2F)cc1C1NCc2ccc(Cl)cc21` (stereo partly shown) [Compound 257] is higher in IC50: 50 to 200 nM for the first, over 200 nM for the second. The first is the more potent here.

`Cc1sc(C(=O)c2cncnc2N[C@H]2C[C@H](O)[C@@H](COS(N)(=O)=O)[C@@H]2F)cc1C1NCCc2cc(C#N)c(Cl)cc21` (stereo partly shown) [Compound 249] and `CC1(C)CN[C@]2(C=Cc3sc(C(=O)c4cncnc4N[C@H]4C[C@H](O)[C@@H](COS(N)(=O)=O)[C@@H]4F)cc32)c2cc(Cl)ccc21` [Compound 1061] fall in the same range of IC50: 50 to 200 nM for the first, 50 to 200 nM for the second.

Same assay, conditions: numeric values, 6 h at 37° C.

Compared with `NS(=O)(=O)OC[C@H]1[C@H](F)[C@@H](Nc2ncncc2C(=O)c2cc3c(s2)CC[C@@]32NCCc3ccc(F)cc32)C[C@@H]1O` [Compound 134], `NS(=O)(=O)OC[C@H]1[C@H](F)[C@@H](Nc2ncncc2C(=O)c2cc3c(s2)CC[C@]32NCCc3ccccc32)C[C@@H]1O` [Compound 129] is lower in IC50: over 1000 nM for the first, 121 nM for the second.

`NS(=O)(=O)OC[C@H]1[C@H](F)[C@@H](Nc2ncncc2C(=O)c2cc3c(s2)C=C[C@@]32NCCc3ccc(Cl)cc32)C[C@@H]1O` [Compound 343] and `[2H]C1([2H])Cc2ccc(Cl)cc2[C@]2(CCCc3sc(C(=O)c4cncnc4N[C@H]4C[C@H](O)[C@@H](COS(N)(=O)=O)[C@@H]4F)cc32)N1` [Compound 661] cannot be ordered by IC50: over 1000 nM for the first, over 1000 nM for the second.
